Target: T1, AcrIF11Pae2 (Escherichia coli, UniProt A0AAB0B261)
T1 construct: pET28b in E. coli BL21(DE3); 13C/15N-labelled
Test: NMR chemical shift perturbation on NAD titration
Type: binding
Conditions: NMR structure 8DWQ is without NAD; structure sample 50 mM KPi pH 7.4, 298 K; titration conditions not stated

T1 sequence (A0AAB0B261 entry or part of it): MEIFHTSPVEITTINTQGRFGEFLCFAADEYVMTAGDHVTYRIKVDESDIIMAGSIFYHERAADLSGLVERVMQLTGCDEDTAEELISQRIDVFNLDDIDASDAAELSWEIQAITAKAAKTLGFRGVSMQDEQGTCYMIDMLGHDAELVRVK

NC(=O)c1ccc[n+]([C@@H]2O[C@H](COP(=O)(O)OP(=O)(O)OC[C@H]3O[C@@H](n4cnc5c(N)ncnc54)[C@H](O)[C@@H]3O)[C@@H](O)[C@H]2O)c1 [NAD]
NMR chemical shift perturbation on NAD titration: upon titration of cofactor NAD, the largest chemical shift perturbations occurred in the beta sheet region
